Data as given in US20240246918A1, “COMPOUNDS AND COMPOSITIONS AS EIF4E INHIBITORS AND THE USES THEREOF” (Ribometrix, Inc., priority 2022, published 2024).
Where two headings read alike, the source gives them in different places.

Assays:
[1] = molecular target: T1, human eIF4E protein (Homo sapiens, UniProt P06730); assay: Biochemical competitive binding assay (TR-FRET competition, EDA-m7GDP-ATTO-647N probe); conditions: read-out: hEIF4E TR-FRET IC50
T1 construct: purchased Novus NBP-45314
Outline: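 IC50 values come from 4-parameter fits of the normalized 665/620 nm TR-FRET ratio. Compound was first incubated 15 min with 4 nM recombinant His-eIF4E bound to 2.5 nM Eu-anti-His antibody, then 15 min with 5 nM m7GDP-ATTO-647N tracer, in pH 7.5 HEPES buffer with 100 mM KCl, Tween-20 and BSA.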

[2] = tested on: cap-dependent translation in Flp-In-293 reporter cells; assay: Cellular cap-dependent translation inhibition assay (dual luciferase assay, DLA; Fluc/Rluc ratio, 24 hours); format: cell-based
[3] = tested on: COLO 205 colorectal tumor cells; assay: Tumor cell viability inhibition assay (CellTiter-Glo 2.0, 72 hours); format: cell-based; conditions: COLO 205 cell viability
Outline: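 IC50 derived by 4-parameter fitting after normalizing luminescence to DMSO and max-inhibition wells. Compounds tested as 11 concentrations in 4-fold steps on COLO 205 cells seeded at 1500 per well in RPMI-1640/10% FBS; ATP content measured with CellTiter-Glo 2.0 after 72 h.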

[4] = read-out: DLA 205 IC50; dual luciferase assay, Flp-In-293 reporter cells, 24 hours, Fluc/Rluc ratio
[5] = Homo sapiens, Flp-In-293, 24 h, dual luciferase assay, Flp-In-293 reporter cells, 24 hours, Fluc/Rluc ratio; read-out: DLA 205 IC50
[6] = dual luciferase assay, Flp-In-293 reporter cells, 24 hours, Fluc/Rluc ratio; read-out: DLA 205 IC50

T1 sequence (P06730 whole entry): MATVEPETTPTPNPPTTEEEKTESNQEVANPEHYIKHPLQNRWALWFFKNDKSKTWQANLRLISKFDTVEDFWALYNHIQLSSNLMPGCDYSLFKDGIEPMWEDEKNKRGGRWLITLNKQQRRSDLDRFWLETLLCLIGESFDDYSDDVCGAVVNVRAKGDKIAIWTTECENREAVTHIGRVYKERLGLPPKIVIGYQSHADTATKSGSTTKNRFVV

Row | Compound | IC50 [1] [nM] | IC50 [2, 4] [nM] | IC50 [3] [nM] | IC50 ([3]; Homo sapiens) [nM] | IC50 [2, 5] [nM] | IC50 [2, 6] [nM] | IC50 ([3]; Homo sapiens, COLO 205, 72 h) [nM]
1 | COC1CCc2nc(C)n(CCOc3ccc(Cl)cc3-c3cc(C)nc4c(C(=O)O)csc34)c(=O)c2C1 (single isomer, unassigned) [Compound 5] | 100 to 500 | > 5000 | 5000 to 20000 | – | – | – | –
2 | COC1CCc2nc(C)n(CCOc3ccc(Cl)cc3-c3cc(C)nc4c(C(=O)O)csc34)c(=O)c2C1 (single isomer, unassigned) [Compound 6] | 100 to 500 | 1000 to 5000 | – | 5000 to 20000 | – | – | –
3 | Cc1nc2c(c(=O)n1CCOc1ccc(Cl)cc1-c1cccc(C(=O)O)c1)CC(N(C)C)CC2 (single isomer, unassigned) [Compound 24] | < 100 | – | 5000 to 20000 | – | < 1000 | – | –
4 | Cc1nc2c(c(=O)n1CCOc1ccc(Cl)cc1-c1cccc(C(=O)O)c1)CC(N(C)C)CC2 (single isomer, unassigned) [Compound 25] | 100 to 500 | – | > 20000 | – | – | 1000 to 5000 | –
5 | CO[C@@H]1CCN([C@H]2CCc3nc(C)n(CCOc4ccc(Cl)cc4-c4cc(C)nc5c(C(=O)O)csc45)c(=O)c3C2)C1 (single isomer, unassigned) [Compound 43] | < 100 | – | – | – | < 1000 | – | < 5000
6 | CO[C@H]1CCN([C@H]2CCc3nc(C)n(CCOc4ccc(Cl)cc4-c4cc(C)nc5c(C(=O)O)csc45)c(=O)c3C2)C1 (single isomer, unassigned) [Compound 44] | < 100 | – | – | – | < 1000 | – | < 5000
7 | CO[C@H]1CCN([C@@H]2CCc3nc(C)n(CCOc4ccc(Cl)cc4-c4cc(C)nc5c(C(=O)O)csc45)c(=O)c3C2)C1 (single isomer, unassigned) [Compound 48] | < 100 | – | – | – | < 1000 | – | < 5000
8 | Cc1cc(-c2cc(Cl)ccc2OCCn2c(C)nc3c(c2=O)CC(N2CC4COCC4C2)CC3)c2scc(C(=O)O)c2n1 (single isomer, unassigned) [Compound 67] | < 100 | – | – | – | < 1000 | – | < 5000
9 | Cc1cc(-c2cc(Cl)ccc2OCCn2c(C)nc3c(c2=O)CC(N2CC4COCC4C2)CC3)c2scc(C(=O)NS(C)(=O)=O)c2n1 (single isomer, unassigned) [Compound 89] | < 100 | – | < 5000 | – | – | < 1000 | –
10 | Cc1cc(-c2cc(Cl)ccc2OCCn2c(C)nc3c(c2=O)CC(N(C)C2CC(F)(F)C2)CC3)c2scc(C(=O)NS(C)(=O)=O)c2n1 (single isomer, unassigned) [Compound 93] | < 100 | – | – | – | < 1000 | – | < 5000
11 | Cc1cc(-c2cc(Cl)ccc2OCCn2c(C)nc3c(c2=O)CC(N(C)C2CC(F)(F)C2)CC3)c2scc(C(=O)NS(C)(=O)=O)c2n1 (single isomer, unassigned) [Compound 94] | < 100 | – | < 5000 | – | – | < 1000 | –
12 | Cc1cc(-c2cc(Cl)ccc2OCCn2c(C)nc3c(c2=O)CC(N(C)Cc2ccncc2)CC3)c2scc(C(=O)O)c2n1 (single isomer, unassigned) [Compound 99] | < 100 | – | – | – | 1000 to 5000 | – | 5000 to 20000
13 | Cc1cc(-c2cc(Cl)ccc2OCCn2c(C)nc3c(c2=O)CC(N(C)Cc2cc[nH]c(=O)c2)CC3)c2scc(C(=O)O)c2n1 (single isomer, unassigned) [Compound 246] | < 100 | – | – | – | > 5000 | – | > 20000
14 | Cc1cc(-c2cc(Cl)ccc2OCCn2c(C)nc3c(c2=O)CC(N(C)Cc2cc[nH]c(=O)c2)CC3)c2scc(C(=O)O)c2n1 (single isomer, unassigned) [Compound 247] | < 100 | – | > 20000 | – | – | > 5000 | –
15 | Cc1cc(-c2cc(Cl)ccc2OCCn2c(C)nc3c(c2=O)CC(N2CCCCC2)CC3)c2scc(C(=O)O)c2n1 (single isomer, unassigned) [Compound 249] | < 100 | – | – | – | < 1000 | – | 5000 to 20000
16 | Cc1cc(-c2cc(Cl)ccc2OCCn2c(C)nc3c(c2=O)CC(N2CCCCC2)CC3)c2scc(C(=O)O)c2n1 (single isomer, unassigned) [Compound 250] | < 100 | – | < 5000 | – | – | < 1000 | –
17 | Cc1cc(-c2cc(Cl)ccc2OCCn2c(C)nc3c(c2=O)CC(N2CCC(F)(F)CC2)CC3)c2scc(C(=O)NS(C)(=O)=O)c2n1 (single isomer, unassigned) [Compound 251] | < 100 | – | – | – | < 1000 | – | < 5000
18 | Cc1sc2c(-c3cc(Cl)ccc3OCCn3c(C)nc4c(c3=O)CC(N(C)CC3CC(F)(F)C3)CC4)cn(C)c(=O)c2c1C(=O)O (single isomer, unassigned) [Compound 252] | < 100 | – | 5000 to 20000 | – | – | 1000 to 5000 | –
19 | Cc1sc2c(-c3cc(Cl)ccc3OCCn3c(C)nc4c(c3=O)CC(N(C)CC3CC(F)(F)C3)CC4)cn(C)c(=O)c2c1C(=O)O (single isomer, unassigned) [Compound 253] | 100 to 500 | – | > 20000 | – | – | > 5000 | –
20 | Cc1cc(-c2cc(Cl)ccc2OCCn2c(C)nc3c(c2=O)CC(N2CCC(F)(F)CC2)CC3)c2scc(C(=O)NS(C)(=O)=O)c2n1 (single isomer, unassigned) [Compound 254] | < 100 | – | < 5000 | – | – | < 1000 | –
21 | Cc1cc(-c2cc(Cl)ccc2OCCn2c(C)nc3c(c2=O)CC(N(C)CC2CC(F)(F)C2)CC3)c2scc(C(=O)NS(C)(=O)=O)c2n1 (single isomer, unassigned) [Compound 256] | < 100 | – | – | – | < 1000 | – | < 5000
22 | Cc1cc(-c2cc(Cl)ccc2OCCn2c(C)nc3c(c2=O)CC(N(C)CC2CC(F)(F)C2)CC3)c2scc(C(=O)O)c2n1 (single isomer, unassigned) [Compound 259] | < 100 | – | < 5000 | – | < 1000 | – | –
23 | Cc1cc(-c2cc(Cl)ccc2OCCn2c(C)nc3c(c2=O)CC(N2CCC[C@H](F)C2)CC3)c2scc(C(=O)NS(C)(=O)=O)c2n1 (single isomer, unassigned) [Compound 264] | < 100 | – | – | – | < 1000 | – | < 5000
24 | Cc1nc2c(c(=O)n1CC#Cc1ccc(Cl)cc1-c1ccnc3c(C(=O)NS(C)(=O)=O)csc13)CC(N(C)C)CC2 (single isomer, unassigned) [Compound 266] | 500 to 5000 | – | – | – | > 5000 | – | > 20000
25 | Cc1nc2c(c(=O)n1CC#Cc1ccc(Cl)cc1-c1ccnc3c(C(=O)NS(C)(=O)=O)csc13)CC(N(C)C)CC2 (single isomer, unassigned) [Compound 273] | 500 to 5000 | – | > 20000 | – | – | > 5000 | –
26 | Cc1cc(-c2cc(Cl)ccc2OCCn2c(C)nc3c(c2=O)CC(N(C)C2(c4ccc(F)cc4)CC2)CC3)c2scc(C(=O)O)c2n1 (single isomer, unassigned) [Compound 280] | 100 to 500 | – | – | – | 1000 to 5000 | – | 5000 to 20000
27 | Cc1cc(-c2cc(Cl)ccc2OCCn2c(C)nc3c(c2=O)CC(N(C)C2(c4ccc(F)cc4)CC2)CC3)c2scc(C(=O)O)c2n1 (single isomer, unassigned) [Compound 281] | 100 to 500 | – | 5000 to 20000 | – | – | 1000 to 5000 | –
28 | Cc1cc(-c2cc(Cl)ccc2OCCn2c(C)nc3c(c2=O)C[C@@H](N2CCC[C@H](F)C2)CC3)c2scc(C(=O)O)c2n1 (single isomer, unassigned) [Compound 282] | < 100 | – | – | – | < 1000 | – | < 5000
